In this assay the test system is secretion of hydrochloric acid in the stomach (Shay ulcers). Briefly: Antisecretory activity - Shay ulcers (pylorus-ligated rat). The class given is in vivo. The conditions noted are these: for Emax / ED40: Rattus norvegicus; for Emax / ED50 / ED40: 2 h; for Emax: α=1 represents 100% inhibition of gastric acid hypersecretion, read-out: α (approximate value of intrinsic activity); for ED50: rat, pylorus ligation, intraduodenal or intravenous; for PR (potency ratio in comparison with Omeprazole): ratio of mean ED50 on the 3 parameters of test compound to mean ED50 of omeprazole; for ED40: footnote 1: ED40 value. The method, then:
Antisecretory activity--Shay ulcers The gastric secretory inhibitory activity of the compounds of general formula (I) was determined in case of hypersecretion induced in the rat by ligation of gastroduodenal junction according to the procedure described by Shay (Shay H. et al, Gasgroenterology 5, 43-61, 1945). […] Thereafter, they were fasted for 24 hours, with water ad libitum, which period was sufficient to assure a good gastric emptying, then laparectomized under light ether anesthesia, so as to allow to effect a pylorus ligation as closer as possible to the gastroduodenal junction. Two hours after the ligation, the animals were killed by means of an ether excess and stomaches were removed. Gastric contents were recovered, after filtration through a gauze, and placed in graduated test-tubes and centrifuged at 3000×g for 15 minutes. The following parameters were evaluated on the surnatant: volume (ml); pH; free acidity by conversion of pH into H^+ μEq by means of Moore table (Ann. New York Acad. Sci. 1967, 866-874); titrable acidity, by titration of an amount with 0.02N NaOH, using phenolphtalein as the indicator. […] The results were expressed as percent inhibition of hypersecretion induced by pylorus ligation in the control rats. The obtained results are reported in table 3 as: ED50 (μmol/kg) calculated on the basis of the equation of the linear tract of does-effect curves obtained with the test compounds on volume, free and titrable acidities; […]

Where [1] appears, read: free acid output, read-out: ED50 free acid output.
Setting [2] is: secretion volume, read-out: ED50 volume.
[3] abbreviates: titratable acid output, read-out: ED50 titratable acid output.

Read-outs that look alike come from different tables or passages of the source.

The ED50 is the dose that gives a 50% effect, or the effect in half of the subjects. As to `Cn1ccnc1SCc1nc2ccccc2[nH]1` [IX, 1-methyl-2-(2'-benzimidazolylmethylthio)imidazole.2HCl], the Emax was in the range of 40 to 60% and the “PR (potency ratio in comparison with Omeprazole)” value is listed as 17,2. Moreover, the ED50 under setting [1] is 53.2 µmol/kg. Also, under setting [2], the ED50 turned out to be 65 µmol/kg. The 50% effective dose (ED50) under setting [3] worked out at 24.7 µmol/kg.

For `CN(C)c1ccccc1CSc1nc2cnccc2[nH]1` [L, 2-[2'-(N,N-dimethylanilyl)methylthio]imidazo-[4,5-c]-pyridine], the Emax was 100% and the “PR (potency ratio in comparison with Omeprazole)” value was 3,8. The ED50 under setting [1] came out at 5.5 µmol/kg. The ED50 under setting [2] worked out at 19.7 µmol/kg. The ED50 under setting [3] came out at 6.9 µmol/kg.

`CN(C)c1ccccc1CSc1nc2cscc2[nH]1` [LII, 2-[2'-(N,N-dimethylanilyl)methylthio)thieno-[3,4-d]-imidazole]: the Emax was in the range of 50 to 80% and the “PR (potency ratio in comparison with Omeprazole)” value was 19,6. Further, the ED50 under setting [1] turned out to be 45 µmol/kg. Besides, the ED50 under setting [2] is 90 µmol/kg. In addition, the ED50 under setting [3] was determined as 28 µmol/kg.

Take `COc1c(C)cnc(CSc2nccn2C)c1C` [VIII, 1-methyl-2-[2'-(3' ,5 '-dimethyl-4'-methoxypyridyl)methylthio]imidazole.2HCl]: the Emax lay in the range of 40 to 60% and the “PR (potency ratio in comparison with Omeprazole)” value was 0,02. Moreover, the ED40 (free acid output, read-out: ED40 free acid output) worked out at 0.03 µmol/kg. The ED40 (secretion volume, read-out: ED40 volume) came out at 0.12 µmol/kg. Further, the ED40 (titratable acid output, read-out: ED40 titratable acid output) stood at 0.03 µmol/kg.

For `Cn1ccnc1SCc1ccc2ccccc2n1` [XII, 1-methyl-2-(2'-quinolylmethylthio)imidazole.2HCl], the Emax turned out to be 100% and the “PR (potency ratio in comparison with Omeprazole)” value is 14,0. Besides, under setting [1], the ED50 amounted to 34.7 µmol/kg. Further, the ED50 under setting [2] came to 43.5 µmol/kg. Also, the ED50 under setting [3] was determined as 38.1 µmol/kg.

With `COc1c(C)cnc(C[S+]([O-])c2nccn2C)c1C` (stereo not shown) [XIV, 1-methyl-2-[2'-(3' ,5 '-dimethyl-4'-methoxy)pyridylmethylsulfinyl]imidazole], the Emax was 60% and the “PR (potency ratio in comparison with Omeprazole)” value is 7,6. In addition, the ED50 under setting [1] turned out to be 17.1 µmol/kg. The ED50 under setting [2] amounted to 26.7 µmol/kg. In addition, under setting [3], the ED50 was 19.2 µmol/kg.

For `CN(C)c1ccccc1C[S+]([O-])c1nccn1-c1ccccc1F` (stereo not shown) [XLI, 1-(2'-fluorophenyl)-2-[2'-(N,N-dimethylanilyl)methylsulfinyl]imidazole], the Emax came out at 100% and the “PR (potency ratio in comparison with Omeprazole)” value is given as 27,6. The ED50 under setting [1] was 42.3 µmol/kg. The ED50 under setting [2] came to 124 µmol/kg. For the same compound, the ED50 under setting [3] is 61.9 µmol/kg.

Turning to `CN(C)c1ccccc1CSc1nc2cncnc2[nH]1` [XLV, 8-[2'-(N,N-dimethylanilyl)methylthio]purine], the Emax was determined as 100% and the “PR (potency ratio in comparison with Omeprazole)” value is 8,2. In addition, the ED50 under setting [1] was 17.8 µmol/kg. For the same compound, under setting [2], the ED50 came out at 31.2 µmol/kg. Further, the ED50 under setting [3] is 19.3 µmol/kg.

As for `COc1ccc(C)nc1C[S+]([O-])c1ncnc2[nH]cnc12` (stereo not shown) [XLVI, 6-[2'-(6'-methyl-3'-methoxypyridyl)methylsulfinyl]purine], the Emax is 100% and the “PR (potency ratio in comparison with Omeprazole)” value is 15,8. Further, the ED50 under setting [1] is 33.1 µmol/kg. In addition, under setting [2], the ED50 amounted to 52 µmol/kg. In addition, the ED50 under setting [3] turned out to be 45.8 µmol/kg.

`c1ccc(N2CCOCC2)c(CSc2nc3cccnc3[nH]2)c1` [XLVII, 2-(2'-[1'-(4-morpholinyl)phenyl]methylthio)imidazo-[4,5-b]-pyridine]: the Emax fell in the range of 70 to 90% and the “PR (potency ratio in comparison with Omeprazole)” value is given as 28,2. In addition, under setting [1], the ED50 turned out to be 42.3 µmol/kg. In addition, the ED50 under setting [2] worked out at 130 µmol/kg. The ED50 under setting [3] worked out at 61.9 µmol/kg.

On to `c1ccc2[nH]c(CSc3nc4cccnc4[nH]3)nc2c1` [XLVIII, 2-(2'-benzimidazolylmethylthio)imidazo-[4,5-b]-pyridine], for which the Emax was 50 to 60% and the “PR (potency ratio in comparison with Omeprazole)” value is given as 110,9. Also, under setting [1], the ED50 is 164 µmol/kg. Further, under setting [2], the ED50 came to 522 µmol/kg. The median effective dose (ED50) under setting [3] came to 235 µmol/kg.

Turning to `Cn1ccnc1[S+]([O-])Cc1nc2cc(C(=O)c3ccccc3)ccc2[nH]1` (stereo not shown) [XV, 1-methyl-2-[2'-(5'-benzoyl)benzimidazolylmethylsulfinyl]imidazole], the Emax lay in the range of 50 to 60% and the “PR (potency ratio in comparison with Omeprazole)” value is recorded as 0,5. In addition, under setting [1], the ED50 amounted to 0.6 µmol/kg. For the same compound, the ED50 under setting [2] came out at 3 µmol/kg. Besides, the median effective dose (ED50) under setting [3] turned out to be 0.7 µmol/kg.

As for `COc1ccnc(C[S+]([O-])c2nccn2C)c1` (stereo not shown) [XVI, 1-methyl-2-[2'-(4'-methoxypyridyl)methylsulfinyl]imidazole], the Emax lay within 40 to 60% and the “PR (potency ratio in comparison with Omeprazole)” value is 0,3. The 50% effective dose (ED50) under setting [1] came to 0.3 µmol/kg. The ED50 under setting [2] came to 2.3 µmol/kg. Also, under setting [3], the ED50 is 0.3 µmol/kg.

`Cn1ccnc1[S+]([O-])Cc1nc2ccccc2[nH]1` (stereo not shown) [XVII, 1-methyl-2-[2'-benzimidazolylmethylsulfinyl)imidazole]: the Emax is 70 to 90% and the “PR (potency ratio in comparison with Omeprazole)” value is 39,7. Moreover, the ED50 under setting [1] is 84.4 µmol/kg. For the same compound, under setting [2], the ED50 came to 134 µmol/kg. In addition, the ED50 under setting [3] is 109 µmol/kg.

With `Cn1ccnc1[S+]([O-])Cc1ccc2ccccc2n1` (stereo not shown) [XVIII, 1-methyl-2-(2'-quinolylmethylsulfinyl)imidazole], the Emax turned out to be 100% and the “PR (potency ratio in comparison with Omeprazole)” value was 14,0. Also, the ED50 under setting [1] came out at 36.9 µmol/kg. Also, under setting [2], the ED50 amounted to 40.3 µmol/kg. In addition, the ED50 under setting [3] stood at 39.4 µmol/kg.

Regarding `COc1ccnc(CSc2nccn2-c2ccccc2)c1C` [XXIII, 1-phenyl-2-[2'-(3'-methyl-4'-methoxypyridyl)methylthio]imidazole], the Emax was 70% and the “PR (potency ratio in comparison with Omeprazole)” value is 43,4. Moreover, the ED50 under setting [1] is 125 µmol/kg. Further, the ED50 under setting [2] was determined as 125 µmol/kg. Further, the ED50 under setting [3] is 110 µmol/kg.

Turning to `CN(C)c1ccccc1CSc1nccn1-c1ccccc1Cl` [XXXI, 1-(2'-clorophenyl)-2-[2'-(N,N-dimethylanilyl)methylthio]imidazole], the Emax was found to be 90% and the “PR (potency ratio in comparison with Omeprazole)” value was 18,4. The ED50 under setting [1] turned out to be 30.1 µmol/kg. In addition, the ED50 under setting [2] was determined as 67.2 µmol/kg. Under setting [3], the ED50 was 55.1 µmol/kg.

With `CN(C)c1ccccc1CSc1nccn1-c1ccccc1F` [XXXII, 1-(2'-fluorophenyl)-2-[2'-(N,N-dimethylanilyl)methylthio]imidazole], the Emax stood at 100% and the “PR (potency ratio in comparison with Omeprazole)” value was 10,1. The ED50 under setting [1] turned out to be 25.5 µmol/kg. Moreover, the ED50 under setting [2] came to 34.2 µmol/kg. In addition, under setting [3], the ED50 worked out at 23.9 µmol/kg.

On to `COc1ccccc1-n1ccnc1SCc1ccccc1N(C)C` [XXXIII, 1-(2'-methoxyphenyl)-2-[2'-(N,N-dimethylanilyl)methylthio]imidazole], for which the Emax is 70 to 80% and the “PR (potency ratio in comparison with Omeprazole)” value is 0,75. Under setting [1], the ED50 came to 1.2 µmol/kg. Also, the ED50 under setting [2] turned out to be 3 µmol/kg. Moreover, under setting [3], the ED50 was 2 µmol/kg.

For `CN(C)c1ccccc1CSc1nccn1-c1ccc(Cl)cc1` [XXXIV, 1-(4'-chlorophenyl)-2-[2'-(N,N-dimethylanilyl)methylthio]imidazole. 2HCl], the Emax came out at 100% and the “PR (potency ratio in comparison with Omeprazole)” value is on record as 3,9. Moreover, the ED50 under setting [1] worked out at 6.1 µmol/kg. For the same compound, the ED50 under setting [2] was 24.6 µmol/kg. Under setting [3], the ED50 came to 1.3 µmol/kg.

Regarding `[O-][S+](Cc1nc2ccccc2[nH]1)c1nccn1-c1ccc(F)cc1` (stereo not shown) [XXXIX, 1-(4'-fluorophenyl)-2-[2'-(benzimidazolyl)methylsulfinyl]-imidazole], the Emax worked out at 80% and the “PR (potency ratio in comparison with Omeprazole)” value is reported as 72,8. Further, the ED50 under setting [1] is 139 µmol/kg. In addition, under setting [2], the ED50 stood at 300 µmol/kg. Under setting [3], the ED50 was found to be 165 µmol/kg.

For `CN(C)c1ccccc1CSc1nccn1-c1ccccc1C(F)(F)F` [XXXV, 1-(2'-trifluoromethylphenyl)-2-[2'-(N,N-dimethylanilyl)methylthio]imidazole. 2HCl], the Emax stood at 100% and the “PR (potency ratio in comparison with Omeprazole)” value is reported as 4,6. The ED50 under setting [1] was determined as 8.3 µmol/kg. The ED50 under setting [2] came to 24.9 µmol/kg. Moreover, the ED50 under setting [3] was determined as 5 µmol/kg.

Take `c1ccc(-n2ccnc2SCc2ccc3ccccc3n2)cc1` [XXXVI, 1-phenyl-2-[2'-(quinolyl)methylthio]imidazole]: the Emax was in the range of 60 to 70% and the “PR (potency ratio in comparison with Omeprazole)” value is on record as 30,1. In addition, under setting [1], the ED50 was 50 µmol/kg. The ED50 under setting [2] amounted to 120 µmol/kg. The ED50 under setting [3] was 80 µmol/kg.

The record behind these values is patent publication US5066652A, “Thiomethyl and sulfinylmethyl derivatives having gastric acid antisectetory activity and pharmaceutical compositions containing them” (Chiesi Farmaceutici S.p.A., priority 1988, dated 1991).
